Results published in US20190030114A1, “ISOFORM-SPECIFIC CALPAIN INHIBITORS, METHODS OF IDENTIFICATION, AND USES THEREOF” (WESTERN UNIVERSITY OF HEALTH SCIENCES, priority 2014, published 2019).

Legend:
Format in all cases: in vivo, mice
[1] = tested on: retina (GCL, IPL); experiment: retinal damage induced by intravitreal NMDA injection, systemic (i.p.) inhibitor
Experimental: FIG. 8A: Representative images show H&E-stained ganglion cell and Plexiform layers of: i) naïve retina; ii) PBS-treated (intravitreally, 2 μI) or NMDA-treated (intravitreally, 2 μI of 2.5 mM) retina from wild-type mice that had been intraperitoneally injected with vehicle (20% DMSO), Formula I (C2l in the drawing, 0.3 mg/kg) or the pan-calpain inhibitor calpeptin (10 mg/kg) at 30 min before and 6 h after NMDA injection. H&E staining was done at 7 days after NMDA injection.
FIG. 8B: Quantitative analysis of cell number in the GCL of wild-type mice that had been injected intravitreally 7 days earlier with either 2 μI PBS or 2 μI NMDA (2.5 mM). The mice were intraperitoneally injected with vehicle (20% DMSO), a Formula I (C2l in the drawing, 0.3 mg/kg) or the pan-calpain inhibitor calpeptin (10 mg/kg) at 30 min before and 6 h after NMDA injection. Columns represent mean±S.E.M. n=4-6. *p<0.05; **p<0.01; ***p<0.001 versus NMDA plus vehicle-injected group. One-way ANOVA followed by Bonferroni test.
FIG. 8C: Quantitative analysis of thickness of the IPL of wild-type mice that had been injected intravitreally 7 days earlier with either 2 μI PBS or 2 μI NMDA (2.5 mM). The mice were intraperitoneally injected with vehicle (20% DMSO), Formula I (C2l in the drawing, 0.3 mg/kg) or the pan-calpain inhibitor calpeptin (10 mg/kg) at 30 min before and 6 h after NMDA injection.
FIG. 9A: Representative immunoblot of the levels of Spectrin breakdown products (SBDP), full-length PH domain and Leucine-rich repeat Protein Phosphatase 1 (PHLPP1)α and Akt in mouse retinal extracts 6 h after intravitreal injection of PBS (control) or NMDA (2 μI of 2.5 mM). Mice were injected i.p. with vehicle (10% DMSO) or C2l (0.3 mg/kg) 30 min before intravitreal injection.
FIG. 9B: Quantitation of ratios of SBDP/Akt, as determined in retinal extracts 6 h after NMDA or PBS injections. Data represent means±S.E.M. n=4. *p<0.05, ***p<0.001,. One-way ANOVA followed by Bonferroni test.
FIG. 9C: Quantitation of ratios of PHLPP1α/Akt, as determined in retinal extracts 6 h after NMDA or PBS injections. Data represent means±S.E.M. n=4. *p<0.05, ***p<0.001,. One-way ANOVA followed by Bonferroni test.
(§1) FIG. 9E: Quantitative analysis of cell number in the GCL from wild-type mice 7 days after NMDA-injection. Six sections cut through the optic disc from each eye were analyzed. Cell numbers in GCL at a distance between 500 and 1000 μm from the optic disc were counted. Cell densities from 6 sections from each eye were averaged.
as §1, with “FIG. 9F:” for “FIG. 9E:”, “of thickness of” for “of cell number in”, “the IPL” for “the GCL”
as §1, with “9H:” for “9E:”, “calpain-1 KO” for “wild-type”, “averaged. Data represent means±S.E.M. n=6. *p<0.05, **p<0.01, ***p<0.001, One-way ANOVA followed by Bonferroni test.” for “averaged.”
as §1, with “9I:” for “9E:”, “thickness of” for “cell number in”, “IPL of calpain-1” for “GCL from wild-type”, “averaged. Data represent means±S.E.M. n=6. *p<0.05, **p<0.01, ***p<0.001, One-way ANOVA followed by Bonferroni test.” for “averaged.”
FIG. 9J: Comparison of GCL cell numbers in NMDA-treated WT and KO mice without and with C2l treatment. n=6. **p<0.01. Two-tailed t-test. […]

[2] = tested on: learning and memory; experiment: fear conditioning protocol; settings: various doses i.p. 30 min before training
Experimental: (§2) FIG. 7A: Effects of an calpain-2 selective inhibitor on fear conditioning. […] Various doses of the compound of Formula I (m-CalpI in the drawing) were injected i.p. 30 min before training to learn the association between a context or a tone with a painful stimulus. Animals were tested 24 h later for their fear responses to the context, and memory strength was quantified by the amount of time mice freeze (their biological response to fear). The ratio between the doses producing enhancement and decrease matches the ratio between the Kis to inhibit calpain-2 and calpain-1. […] Results are means±S.E.M. of 8-10 experiments. *p<0.05 (ANOVA followed by Bonferroni post-test).
as §2, with “7B:” for “7A:”, “1 (m-CalpI)” for “I (m-CalpI in the drawing)”, “48” for “24”, “tone,” for “context,”
Formula 1 Enhances Memory. […] In this protocol, mice were trained to learn the association between a context or a tone with a painful stimulus. Various doses of the compound of Formula 1 (mCalp-I) were injected i.p. 30 min before training. Animals were tested 24 h later in the context (FIG. 7A) and 48 h later with the tone (FIG. 7B). When tested 24 h or 48 h later for their fear responses to either the context or the tone, memory strength was quantified by the amount of time mice freeze (their biological response to fear). The ratio between the doses producing enhancement and decrease matches the ratio between the Kis to inhibit calpain-2 and calpain-1. […] Results are means±S.E.M. of 8-10 experiments. *p<0.05 (ANOVA followed by Bonferroni post-test).

[3] = tested on: retina (GCL, IPL, RGC); experiment: acute IOP elevation (acute angle closure glaucoma model), systemic (i.p.) C2l
[4] = WT mice, i.p. 30 min before and 6 h after NMDA
[5] = calpain-1 KO mice, systemic injection
[6] = i.p. 30 min before NMDA, 6 h after NMDA, WT mice
[7] = injected 2 h after IOP elevation, WT mice, n=5

CCC(NC(=O)C(CC(C)C)NC(=O)OCc1ccccc1)C(=O)C(=O)NCc1cc(OC)cc(OC)c1 (racemic) [Formula 1, Z-Leu-Abu-CONH—CH2-C6H3 (3, 5-(OMe)2)]
NMDA-induced retinal damage ([1]; 0.3 mg/kg i.p. 30 min before and 6 h after NMDA, wild-type mice): protective against NMDA-induced retinal damage | effect on GCL cell survival, KO versus WT mice ([1]; NMDA-treated): lower in KO mice than in WT mice | NMDA-induced reduction in GCL cell density [1, 4]: significantly suppressed the reduction | NMDA-induced reduction in IPL thickness [1, 4]: significantly suppressed the reduction | NMDA-induced decrease in GCL cell density [1, 5]: partially but significantly reversed | NMDA-induced decrease in IPL thickness [1, 5]: partially but significantly reversed | NMDA-induced changes in PHLPP1 in retinal extracts [1, 6]: not | NMDA-induced changes in SBDP in retinal extracts [1, 6]: significantly suppressed | effect on learning and memory in the fear conditioning protocol ([2]; context 24 h, tone 48 h): biphasic effect | effect on learning and memory, fear response to the context ([2]; tested 24 h later): biphasic effect | effect on learning and memory, fear response to the tone ([2]; tested 48 h later): biphasic effect | survival rate of RGC versus vehicle ([3]; injected 2 h after IOP elevation): significantly improved | RGC counts (brn-3a), IOP-elevated eye [3, 7]: 37.1±2.5 cells/mm | RGC counts (brn-3a), sham eye [3, 7]: 45.2±5.0 cells/mm | changes in PHLPP1 and pAkt after IOP elevation ([3]; retina 3 h after IOP elevation, 0.3 mg/kg at 2 h): present in C2l-injected WT mice
